Experimental data as given in patent US9187439B2, “Tricyclic compounds useful as neurogenic and neuroprotective agents” (INCEPTION 1, INC., priority 2011, dated 2015).

Experiments:
[1] = test system: SH-SY5Y human neuroblastoma cells; assay: In vitro human SHSY5Y survival assay (neuronal survival assay); assay type: cell-based; settings: n=2
Method: In Vitro Human SHSY5Y Survival Assay
In order to determine if compounds effect cell survival, we tested them in an in vitro assay using the human neuroblastoma cell line SH-SY5Y. SH-SY5Y human neuroblastoma cells treated with retinoic acid for 5 days produce a homogeneous population of neuronal differentiated cells that are strictly dependant on BDNF for their survival. SH-SY5Y cells are plated on 96-well collagen coated plates and incubated for 24 hours. Retinoic acid is then added and incubated on the cells for 5 days. After 5 days, media with retinoic acid is removed and replaced with serum free media+/−compound. Each plate includes basal media (negative) and BDNF (positive) controls. The cells are then fixed with paraformaldehyde (3.7%) and stained with the nuclear marker Hoechst and the neuronal marker beta-Tubulin III. The plate is imaged using the In Cell Analyzer 2000™. Each well is imaged in 9 different spots throughout the well. The images are analyzed with a custom-designed algorithm using the In Cell Developer™ software. Data is averaged per compound concentration and calculated as a background subtracted percent of positive control.

[2] = target: T1, Recombinant GST-Bax protein (Homo sapiens, UniProt Q07812); assay: BAX liposome assay; assay type: biochemical
T1 construct: purchased Abnova
T1 sequence (Q07812 whole entry): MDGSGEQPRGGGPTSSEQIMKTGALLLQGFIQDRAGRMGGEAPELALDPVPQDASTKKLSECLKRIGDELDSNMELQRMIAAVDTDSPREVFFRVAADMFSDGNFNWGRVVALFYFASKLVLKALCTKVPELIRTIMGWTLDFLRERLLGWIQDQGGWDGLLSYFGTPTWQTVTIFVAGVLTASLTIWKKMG
Method: Inhibition of BAX oligomerization and pore formation was evaluated using a liposome assay preparation. To do so, 30% 1,2-dioleoyl-sn-glycero-3-phosphate and 70% 1,2-dioleoyl-sn-glycero-3-phosphocholine (Avanti Polar Lipids, Alabaster, Ala.) were mixed in chloroform followed by evaporation at 37° C. under nitrogen (Saito et al., 2000). Liposomes were then rehydrated with agitation in buffer containing 50 mM 10 kD-dextran carboxyfluorescein (dextran-CF, Invitrogen, Carlsbad, Calif.), 100 mM KCl, 1 mM EDTA and 20 mM HEPES at pH 7.4. Liposomes were then sized using 5 freeze-thaw cycles, 5 minutes in a sonication bath, followed by 3 passages through a 5 μm syringe filter and 5 passages through a 0.2 μm syringe filter. Free dextran-CF was removed by Sepharose S-300 size exclusion chromatography (GE Healthcare, Piscataway, N.J.). Recombinant GST-Bax protein (Abnova, Taipei, Taiwan) was activated by incubating for 30 minutes in 2% octyglucoside in the presence or absence of compound X in a 96-well plate. Liposomes were then added to the activated GST-Bax (final concentration 10 nM). Carboxyfluorescein release from liposomes was measured by excitation with 497 nm light and the […] monitored for 15 minutes.

[3] = test system: mitochondria isolated from HeLa cells; assay: HeLa cytochrome C release assay; assay type: biochemical; settings: at a concentration of 10 μM; release initiated with t-Bid 25 nM
Method: HeLa Cytochrome C Release Assay
Inhibition of the pro-apoptotic protein cytochorome C by a compound of Formula I (and/or a compound of any of the other formulae described herein), was evaluated in mitochondria isolated from HeLa cells. In the assay, 10-20 million HeLa cells were resuspended in assay buffer (70 mM sucrose; 230 mM mannitol; 1 mM EDTA; 5 mM HEPES, pH 7 with KOH) containing protease inhibitor cocktail (Sigma P-8340) and treated with 1.5 μg/million cells digitonin for 5 minutes at 4° C. Cells were pelleted by centrifugation and washed twice with assay buffer containing 0.5% BSA. Cells were resuspended in assay buffer and homogenized with a Dounce homogenizer (60 strokes) on ice. Intact cells were removed by centrifugation (1000×g, 10 min) and the supernatant centrifuged (8,500×g, 10 min) The mitochondrial pellet was resuspended in assay buffer to achieve a protein concentration of 0.333 μg/ml. 15 μl of Test compound (at 5× dilution) was combined with 45 μl mitochondria and incubated for 15 min at RT. Cytochrome C release was initiated with 15 μl t-Bid (final conc=25 nM) and the reaction continued for 30 min at RT. Samples were then centrifuged (12,000×g, 10 min) and 50 μl of the supernatant analyzed for cytochrome C content by ELISA (R & D Systems, #DCTCO).

Compound | EC50 [1] [µM] | IC50 [2] [µM] | inhibition of cytochrome C release [3] [%]
OC(CN1CC2(COC2)C1)CN1c2ccccc2Sc2ccc(C(F)(F)F)cc21 (racemic) [Example 1, (±)-1-(2-oxa-6-azaspiro[3.3]heptan-6-yl)-3-(2-(trifluoromethyl)-10H-phenothiazin-10-yl)propan-2-ol] | 0.509 | 24.6 | 
FC(F)(F)c1ccc2c(c1)N(CCCN1CC3(CNC3)C1)c1ccccc1S2 [Example 4, 10-(3-(2,6-diazaspiro[3.3]heptan-2-yl)propyl)-2-(trifluoromethyl)-10H-phenothiazine] |  |  | 27
OC(CN1CC2(CNC2)C1)CN1c2ccccc2Sc2ccc(C(F)(F)F)cc21 (racemic) [Example 3, (±)-1-(2,6-diazaspiro[3.3]heptan-2-yl)-3-(2-(trifluoromethyl)-10H-phenothiazin-10-yl)propan-2-ol] |  |  | 93
